Reference: patent US10040749B2, “Opsin-binding ligands, compositions and methods of use” (priority 2011, dated 2018)

test system: P23H opsin; assay: Rhodopsin purification and regeneration (P23H cells treated with compound, regenerated with 9-cis-retinal, 480-500 nm absorbance); conditions: 480-500 nm absorbance as fold increase over DMSO control; P23H cells; compound 10 μM

Compared with `CC1=C(COc2cccc(C)c2)C(C)(C)CCC1` [Compound 6, 1-methyl-3-((2,6,6-trimethylcyclohex-1-enyl)methoxy)benzene], `CC1=C(COc2cccc(F)c2)C(C)(C)CCC1` [Compound 7, 1-fluoro-3-((2,6,6-trimethylcyclohex-1-enyl)methoxy)benzene] is higher in “Fold Increase Over Control” value: 1.6 fold for the first, 2.4 fold for the second.

First: CC1=C(CNc2cccc(C(F)(F)F)c2)C(C)(C)CCC1.Cl [Compound 1, 3-(trifluoromethyl)-N-((2,6,6-trimethylcyclohex-1-enyl)methyl)aniline hydrochloride]
Second: CC1=C(CNc2cccc(F)c2)C(C)(C)CCC1.Cl [Compound 10, 3-fluoro-N-((2,6,6-trimethylcyclohex-1-enyl)methyl)aniline hydrochloride]
The “Fold Increase Over Control” value of the first is lower: 1.8 fold for the first, 2.1 fold for the second.

Compared with `CC1=C(COc2ccc(F)c(F)c2)C(C)(C)CCC1` [Compound 29, 1,2-difluoro-4-((2,6,6-trimethylcyclohex-1-enyl)methoxy) benzene], `CC1=C(COc2cccc(Cl)c2)C(C)(C)CCC1` [Compound 8, 1-chloro-3-((2,6,6-trimethylcyclohex-1-enyl)methoxy)benzene] is lower in “Fold Increase Over Control” value: 2.4 fold for the first, 2.2 fold for the second.

Compared with `CC1(C)CCCC=C1CNc1cccc(F)c1.Cl` [Compound 32, N-((6,6-dimethylcyclohex-1-enyl)methyl)-3-fluoroaniline hydrochloride], `C[C@H]1CCCC(C)(C)[C@@H]1CNc1cccc(F)c1.Cl` [Compound 38, 3-fluoro-N-(((1R,6S)-2,2,6-trimethylcyclohexyl)methyl)aniline hydrochloride] is higher in “Fold Increase Over Control” value: 1.7 fold for the first, 2.4 fold for the second.

First: CC1=C(C(O)Cc2ccc(C)c(C)c2)C(C)(C)CCC1 (centres unmarked) [Compound 30, 2-(3,4-dimethylphenyl)-1-(2,6,6-trimethylcyclohex-1-enyl)ethanol]
Second: CC1=C(CNc2ccc(F)c(C)c2)C(C)(C)CCC1.Cl [Compound 15, 4-fluoro-3-methyl-N-((2,6,6-trimethylcyclohex-1-enyl)methyl)aniline hydrochloride]
The “Fold Increase Over Control” value of the first is higher: 1.8 fold for the first, 1.6 fold for the second.

Going from `C[C@H]1CCCC(C)(C)[C@@H]1CNc1cccc(Cl)c1.Cl` [Compound 37, 3-chloro-N-(((1R,6S)-2,2,6-trimethylcyclohexyl)methyl)aniline hydrochloride] to `CC1=C(CNc2cccc(Cl)c2)C(C)(C)CCC1` [Compound 5, 3-chloro-N-((2,6,6-trimethylcyclohex-1-enyl)methyl)aniline], the “Fold Increase Over Control” value falls from 2.4 fold to 1.8 fold.

In the case of `CC1=C(CNc2cccc(C)c2)C(C)(C)CCC1` [Compound 2, 3-methyl-N-((2,6,6-trimethylcyclohex-1-enyl)methyl)aniline], the “Fold Increase Over Control” value is reported as 2.0 fold.

same assay, conditions: 480-500 nm absorbance as fold increase over DMSO control; P23H cells; compound 20 μM

Going from `C[C@H]1CCCC(C)(C)[C@@H]1CNc1cccc(C(F)(F)F)c1.Cl` [Compound 12, 3-(trifluoromethyl)-N-(((1R,6S)-2,2,6-trimethylcyclohexyl)methyl)aniline hydrochloride] to `CC1=C(CC(O)c2cccc(C(F)(F)F)c2)C(C)(C)CCC1` (centres unmarked) [Compound 20, 1-(3-(trifluoromethyl)phenyl)-2-(2,6,6-trimethylcyclohex-1-enyl)ethanol], the “Fold Increase Over Control” value rises from 2.0 fold to 2.4 fold.

For `CC(=O)/C=C/C1=C(C)CCCC1(C)C` [β-ionone, reference compound], the “Fold Increase Over Control” value was 2.4 fold.

same assay, conditions: FIG. 1; P23H opsin treated with 20 μM during mutant protein production, relative to vehicle (DMSO) alone

In the case of `CC(=O)/C=C/C1=C(C)CCCC1(C)C` [β-ionone, reference compound], the “regeneration of 500 nm absorbing pigment upon treatment with retinal” value is reported as “increase”.
